# Laboratory results from patent US7524887B2, “2-amino-1,3-propanediol compounds for the treatment of acute pain” (Sanofi-Aventis Deutschland GmbH, priority 2003, dated 2009).
# Experiments:
# [1] = tested on: Sprague Dawley rats (formalin model of acute pain); assay: Formalin test after intrathecal application of S1P; format: in vivo, rat; conditions: for Mean flinches in 5 min interval: 20 μl of 10 μM S1P intrathecal 15 min prior to formalin, mean of six animals
# Protocol: The analgesic effect of sphingosine-1-phosphate (S1P) was determined by intrathecal application to the spinal cord by:
# Wild type Sprague Dawley rats were purchased from Charles River Wiga GmbH (Sulzfeld, Germany). The animals had free access to food and water prior to the experiments. They were maintained in climate- and light-controlled rooms (24+0.5° C.). Each animal was used at one occasion only. In all experiments the ethics guidelines for investigations in conscious animals were obeyed, and the procedures were approved by the local Ethics Committee.
# Rats were anesthetized with ketamine (60 mg/kg i.p.) and midazolam (0.5 to 1 mg/kg i.p.). The skin was incised above the vertebral column from vertebrae Th13 up to L3. Muscle tissue around L2-3 was cleared away. The processus spinosus of L3 was removed and a laminectomy was done at L2. Polyethylene catheters (ID 0.28 mm, OD 0.61 mm) were then inserted into the peridural space so that the tip of the catheter reached Th9-10. The catheter was fixed with cyanacrylate glue and was externalized in the neck region and the skin was sutured.
# Three days after surgery rats were placed into a “freely moving system” (CMA, Stockholm, Sweden) 20 μl of 10 μM S1P, purchased from Tocris (Ellisville, Mo.), were infused through the catheter.
# Within 15 min after stopping the infusion the formalin test was performed. 50 μL of a 5% formaldehyde solution were injected subcutaneously (s. c.) into the dorsal surface of one hind paw. Flinches were counted in one-minute intervals up to 60 min starting right after formalin injection. Flinches of 5 min intervals were summarized as mean flinches per minute. To compare the nociceptive behavior between groups the sum of flinches during the one-hour observation period were submitted to the Students t-test.
# S1P was dissolved in DMSO to a final concentration of 2.5 mM and then diluted 1:250 in PBS. 20 μl of 10 μM S1P or 20 μl 0.1 M phosphate buffered saline, pH 7.2 (PBS,) in DMSO were given to adult rats by intrathecal application 15 minutes prior to the formalin injection. Then, flinches were counted in 5 minutes intervals over a period of 60 minutes.
# [2] = tested on: Sprague Dawley rats (formalin model of acute pain); assay: Formalin test after interperitoneal injection of compound 1; format: in vivo, rat; conditions: for Mean flinches in 5 min interval: 1 mg/kg interperitoneally in PEG 3 hours prior to formalin, n = 5 rats
# Protocol: Animals: Male Sprague Dawley rats weighing 300-350 g were purchased from Charles River Wiga GmbH (Sulzfeld, Germany). The animals had free access to food and water prior to the experiments. They were maintained in climate- and light-controlled rooms (24+0.5° C.). Each animal was used at one occasion only. In all experiments the ethics guidelines for investigations in conscious animals were obeyed and the procedures were approved by the local Ethics Committee. Formalin test: The formalin assay was performed in a dedicated room with restriction on sound level and activity. 2-amino-2-[2-(4-octylphenyl)ethyl]-1,3-propanediol hydrochloride (compound 1) was dissolved in polyethylene-glycol (PEG) at a concentration of 1 mg/ml and injected interperitoneally (1 mg/kg) 3 hours prior to the formalin tests were performed with compound 1. 50 μl of a 5% formaldehyde solution was injected subcutaneously (s.c.) into the dorsal surface of one hind paw. Rats were placed into a plexiglas chamber surrounded by mirrors to allow an unobstructed view of the paws. Flinches were counted in one-minute intervals up to 60 min starting right after formalin injection. Flinches of 5 min intervals were summarized as mean flinches per minute +SEM. Statistical analysis was performed using the student's t-test (*p<0.04).
structure (smiles),measurement,setting,value
"CCCCCCCCCCCCC/C=C/[C@@H](O)[C@@H](N)COP(=O)(O)O [Compound S1P, sphingosine-1-phosphate]",Number of nociceptive responses for phase 2A compared to PBS/DMSO-treated animals,"[1]; phase 2A = 20 to 35 minutes after formalin injection, 20 μl of 10 μM S1P intrathecal",significant decrease
same,Mean flinches in 5 min interval,[1]; time 5 min after formalin,60.9
same,Mean flinches in 5 min interval,[1]; time 10 min after formalin,24.6
same,Mean flinches in 5 min interval,[1]; time 15 min after formalin,12.7
same,Mean flinches in 5 min interval,[1]; time 20 min after formalin,17.1
same,Mean flinches in 5 min interval,[1]; time 25 min after formalin,19.6
same,Mean flinches in 5 min interval,[1]; time 30 min after formalin,24.7
same,Mean flinches in 5 min interval,[1]; time 35 min after formalin,31.4
same,Mean flinches in 5 min interval,[1]; time 40 min after formalin,41.9
same,Mean flinches in 5 min interval,[1]; time 45 min after formalin,49.3
same,Mean flinches in 5 min interval,[1]; time 50 min after formalin,41.3
same,Mean flinches in 5 min interval,[1]; time 55 min after formalin,49.0
same,Mean flinches in 5 min interval,[1]; time 60 min after formalin,38.0
"CCCCCCCCc1ccc(CCC(N)(CO)CO)cc1.Cl [Compound 1, 2-amino-2-[2-(4-octylphenyl)ethyl]-1,3-propanediol hydrochloride]",Number of nociceptive responses for phase 2A compared to the control animals,"[2]; phase 2A = 20 to 35 minutes after formalin injection, 1 mg/kg interperitoneally, student's t-test",significant decrease
same,Mean flinches in 5 min interval,[2]; time 5 min after formalin,85.4
same,Mean flinches in 5 min interval,[2]; time 10 min after formalin,41.2
same,Mean flinches in 5 min interval,[2]; time 15 min after formalin,33.6
same,Mean flinches in 5 min interval,[2]; time 20 min after formalin,29.6
same,Mean flinches in 5 min interval,[2]; time 25 min after formalin,31.6
same,Mean flinches in 5 min interval,[2]; time 30 min after formalin,51.4
same,Mean flinches in 5 min interval,[2]; time 35 min after formalin,49.2
same,Mean flinches in 5 min interval,[2]; time 40 min after formalin,48.0
same,Mean flinches in 5 min interval,[2]; time 45 min after formalin,48.6
same,Mean flinches in 5 min interval,[2]; time 50 min after formalin,39.8
same,Mean flinches in 5 min interval,[2]; time 55 min after formalin,42.6
same,Mean flinches in 5 min interval,[2]; time 60 min after formalin,42.2
